Patent US11478483B2, “Method of treating hypertension” (Cipla Limited, priority 2017, dated 2022)
Several values for one entry are separate records, joined by “and”; a condition that tells them apart may be missing. Equal entries are not always repeated. Structures can show the parent of a compound that is named as a salt.

How the values were obtained:
[1] = test system: rats with monocrotaline induced pulmonary arterial hypertension; assay: Pulmonary arterial hypertension efficacy model: monocrotaline rat, hemodynamic evaluation; format: in vivo, Male Sprague-Dawley rats; settings: for Right Ventricle (RV), Mean / Right Ventricle/Body Weight, Mean / Right Ventricular Pressure, Mean / Right Ventricular Systolic Pressure (RVSP), Mean: group mean; for Right Ventricle (RV), Mean / Right Ventricle/Body Weight, Mean / Right Ventricular Pressure, Mean / Right Ventricular Systolic Pressure (RVSP), Mean / Right Ventricle (RV) / Right Ventricle/Body Weight / Right Ventricular Pressure / Right Ventricular Systolic Pressure (RVSP): MCT 50 mg/kg s.c., Day 28; for Right Ventricle (RV) / Right Ventricle/Body Weight / Right Ventricular Pressure / Right Ventricular Systolic Pressure (RVSP): individual animals
Description: The studies were conducted for hemodynamic evaluation of quetiapine in anesthetized sprague dawley rats treated with monocrotaline (“MCT”) to induce pulmonary arterial hypertension. Sildenafil was used as an internal control to compare the effects of Quetiapine.
The effects of Quetiapine were evaluated in rats with monocrotaline induced pulmonary arterial hypertension using sildenafil as standard care treatment. Male Sprague-Dawley rats were orally administered vehicle, Quetiapine (40 mg/kg, divided into a BID regimen given every day for 28 days starting on Day 1), or sildenafil (100 mg/kg, administered once daily) (n=12 in each group). Rats received a single injection of monocrotaline (50 mg/kg, s.c.) on Study Day 1. On the twenty-eighth day following monocrotaline dosing, the rats were anesthetized with ketamine/xylazine for terminal monitoring of pulmonary and systemic arterial pressures along with heart rate.
Vehicle (0.5% Methylcellulose+0.2% Tween 80 in deionized water, Quetiapine (40 mg/kg dib for 28 days; Sildenafil ([…], administered once daily)
Male Sprague-Dawley rats in groups I, II, III and IV and V were administered 50 mg/kg of body weight of Monocrotaline in DMSO subcutaneously to induce PAH on day 1. The DMSO group (Group I, negative control) received a single dose of DMSO subcutaneously on day 1. The vehicle group received 5 ml of vehicle every morning. The Quetiapine as well as sildenafil groups were orally administered Quetiapine (40 mg/kg, divided into a BID regimen given every day for 28 days starting on Day 1), or sildenafil (100 mg/kg, administered once daily). On the twenty-eighth day after monocrotaline dosing, the rats were anesthetized with ketamine/xylazine for terminal monitoring of pulmonary and systemic arterial pressures along with heart rate.

[2] = after oral administration; cited from earlier work
[3] = Sildenafil 100 mg/kg p.o. once daily
[4] = Quetiapine 40 mg/Kg bid p.o. for 28 days

SMILES: CCCc1nn(C)c2c(=O)[nH]c(-c3cc(S(=O)(=O)N4CCN(C)CC4)ccc3OCC)nc12 [Sildenafil]
- Right Ventricle (RV), Mean [1, 3]: 0.247 g
- Right Ventricle/Body Weight, Mean [1, 3]: 0.0006 g
- Right Ventricular Pressure, Mean [1, 3]: 13.929 mmHg
- Right Ventricular Systolic Pressure (RVSP), Mean [1, 3]: 29.648 mmHg
- Right Ventricle (RV) [1, 3]: 0.236 g and 0.440 g and 0.228 g and 0.207 g and 0.232 g and 0.308 g and 0.229 g and 0.261 g and 0.083 g
- Right Ventricle/Body Weight [1, 3]: 0.0007 g (3×) and 0.0009 g and 0.0006 g (4×) and 0.0003 g
- Right Ventricular Pressure [1, 3]: 16.804 mmHg and 11.481 mmHg and 15.226 mmHg and 11.673 mmHg and 14.427 mmHg and 14.139 mmHg and 16.310 mmHg and 12.947 mmHg and 12.352 mmHg
- Right Ventricular Systolic Pressure (RVSP) [1, 3]: 33.864 mmHg and 23.627 mmHg and 31.322 mmHg and 24.486 mmHg and 29.450 mmHg and 31.316 mmHg and 32.922 mmHg and 34.262 mmHg and 25.579 mmHg

SMILES: OCCOCCN1CCN(C2=Nc3ccccc3Sc3ccccc32)CC1 [Quetiapine fumarate]
- time to reach peak plasma concentrations [2]: 1.5 h

SMILES: OCCOCCN1CCN(C2=Nc3ccccc3Sc3ccccc32)CC1 [Quetiapine]
- activity in controlling or reducing PAH compared with Sildenafil ([1]; MCT rats, Quetiapine 40 mg/kg bid vs Sildenafil 100 mg/kg): comparable among with Sildenafil activity
- systolic and mean pulmonary arterial pressures compared to the vehicle group ([1]; after 28 days, Quetiapine 40 mg/kg bid, MCT rats): differences in systolic and mean pulmonary arterial pressures
- Right Ventricle (RV), Mean [1, 4]: 0.276 g
- Right Ventricle/Body Weight, Mean [1, 4]: 0.0008 g
- Right Ventricular Pressure, Mean [1, 4]: 22.414 mmHg
- Right Ventricular Systolic Pressure (RVSP), Mean [1, 4]: 47.511 mmHg
- Right Ventricle (RV) [1, 4]: 0.336 g and 0.337 g and 0.312 g and 0.260 g and 0.193 g and 0.353 g and 0.225 g and 0.276 g and 0.190 g
- Right Ventricle/Body Weight [1, 4]: 0.0010 g (3×) and 0.0007 g and 0.0006 g (3×) and 0.0012 g and 0.0008 g
- Right Ventricular Pressure [1, 4]: 27.940 mmHg and 21.646 mmHg and 22.967 mmHg and 16.792 mmHg and 19.956 mmHg and 24.109 mmHg and 28.929 mmHg and 18.440 mmHg and 20.951 mmHg
- Right Ventricular Systolic Pressure (RVSP) [1, 4]: 54.140 mmHg and 47.463 mmHg and 43.052 mmHg and 36.213 mmHg and 41.515 mmHg and 68.747 mmHg and 54.503 mmHg and 37.045 mmHg and 44.925 mmHg
